In ChEMBL document CHEMBL1817560, “Selectivity of kinase inhibitor fragments” (J Med Chem, 2011) one finds IC50 data, which are given here for three molecules.

As usually defined, the IC50 is the concentration that inhibits the measured activity by half.

Structures are written as SMILES. Some results are limits rather than exact numbers.

What all share (conditions): read-out: IC50
The target of experiment [1] is T1, Inhibitor of nuclear factor kappa-B kinase subunit beta (Homo sapiens, UniProt O14920).
T1 sequence (O14920 whole entry): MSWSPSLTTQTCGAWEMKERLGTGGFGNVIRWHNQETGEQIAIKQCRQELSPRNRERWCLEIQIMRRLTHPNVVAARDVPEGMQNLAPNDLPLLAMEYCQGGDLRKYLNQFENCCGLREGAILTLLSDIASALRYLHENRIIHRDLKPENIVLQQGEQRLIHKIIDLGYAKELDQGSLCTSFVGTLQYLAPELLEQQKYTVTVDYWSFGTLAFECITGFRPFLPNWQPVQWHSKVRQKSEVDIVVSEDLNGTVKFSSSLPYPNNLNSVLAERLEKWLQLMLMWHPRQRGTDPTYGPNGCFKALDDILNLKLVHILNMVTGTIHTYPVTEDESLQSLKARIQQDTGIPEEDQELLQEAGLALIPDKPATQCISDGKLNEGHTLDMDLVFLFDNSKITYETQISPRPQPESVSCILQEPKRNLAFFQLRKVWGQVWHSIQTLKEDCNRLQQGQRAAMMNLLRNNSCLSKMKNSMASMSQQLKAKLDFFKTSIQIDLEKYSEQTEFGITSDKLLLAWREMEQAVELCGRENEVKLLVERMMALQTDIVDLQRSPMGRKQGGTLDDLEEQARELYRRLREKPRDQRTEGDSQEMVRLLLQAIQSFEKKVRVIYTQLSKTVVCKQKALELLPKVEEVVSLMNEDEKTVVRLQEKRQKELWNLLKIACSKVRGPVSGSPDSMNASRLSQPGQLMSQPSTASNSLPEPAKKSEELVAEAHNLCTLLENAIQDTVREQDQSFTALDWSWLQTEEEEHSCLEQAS
Put plainly: biochemical. Type of experiment: cell-based.

In experiment [2] the target is RAC-alpha serine/threonine-protein kinase (Homo sapiens, UniProt P31749). Description: Inhibition of AKT1 expressed in Escherichia coli or baculovirus-infected insect cells by scintillation proximity assay. For orientation: Scintillation proximity formats need no separation of bound from free tracer.
The target in experiment [3] is Mitogen-activated protein kinase 8 (Homo sapiens, UniProt P45983). Description: Inhibition of JNK1 expressed in Escherichia coli or baculovirus-infected insect cells by TR-FRET assay.
Sequence of Mitogen-activated protein kinase 8 (P45983 whole entry): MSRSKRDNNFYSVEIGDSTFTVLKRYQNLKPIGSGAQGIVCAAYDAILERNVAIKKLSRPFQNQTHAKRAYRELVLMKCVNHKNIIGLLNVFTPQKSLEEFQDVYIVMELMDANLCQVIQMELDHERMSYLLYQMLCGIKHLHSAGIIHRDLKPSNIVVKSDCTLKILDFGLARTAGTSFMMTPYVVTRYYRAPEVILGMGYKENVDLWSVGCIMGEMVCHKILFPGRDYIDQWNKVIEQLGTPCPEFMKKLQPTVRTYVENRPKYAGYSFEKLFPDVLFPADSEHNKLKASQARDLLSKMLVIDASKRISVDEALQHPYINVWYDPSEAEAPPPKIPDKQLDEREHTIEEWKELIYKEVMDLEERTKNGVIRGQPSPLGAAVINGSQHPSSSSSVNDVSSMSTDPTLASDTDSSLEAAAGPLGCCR

Sequence of RAC-alpha serine/threonine-protein kinase (P31749 whole entry): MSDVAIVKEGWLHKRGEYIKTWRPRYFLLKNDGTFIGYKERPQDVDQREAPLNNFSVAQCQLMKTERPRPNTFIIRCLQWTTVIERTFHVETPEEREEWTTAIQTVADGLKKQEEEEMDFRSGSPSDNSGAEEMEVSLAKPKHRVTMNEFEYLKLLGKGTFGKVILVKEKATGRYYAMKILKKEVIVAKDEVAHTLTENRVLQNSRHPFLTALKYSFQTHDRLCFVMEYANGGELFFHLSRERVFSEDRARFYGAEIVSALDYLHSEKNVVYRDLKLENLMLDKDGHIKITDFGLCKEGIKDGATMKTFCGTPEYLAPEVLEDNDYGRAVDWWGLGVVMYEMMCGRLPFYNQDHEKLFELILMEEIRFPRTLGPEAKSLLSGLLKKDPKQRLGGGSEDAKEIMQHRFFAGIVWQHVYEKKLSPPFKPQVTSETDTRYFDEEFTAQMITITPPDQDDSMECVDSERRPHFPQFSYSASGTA

Turning to `Cc1cc2c(-c3ccc(S(=O)(=O)N(C)CCO)cc3)ccnc2[nH]1`, in experiment [1], the IC50 worked out at 15 nM. In the case of `NCC(NC(=O)c1ccc(-c2ccnc3[nH]ccc23)s1)c1ccccc1` (stereo not drawn), in experiment [2], the IC50 turned out to be 190 nM. With `Nc1ccc(-c2cnc3[nH]cc(-c4ccoc4)c3c2)cc1`, the IC50 in experiment [3] is less than 500 nM.
